Columns and labels:
[1] = tested on: Bacillus spp.; test: Inhibition of Bacillus spp. by acriflavin; assay type: cell-based
[2] = tested on: L. monocytogenes; test: Effect of acriflavin on hemolytic activity of L. monocytogenes; assay type: cell-based

## Acriflavin
[1]
  Inhibition of Bacillus spp.: consistently inhibits all of the Bacillus spp.
[2]
  Effect on hemolytic activity of L. monocytogenes: inhibits the hemolytic activity of L. monocytogenes
